The structures appear in SMILES notation. Where “and” joins values, the source holds several entries; their conditions need not be identical. Identical values can stand only once. Like-named read-outs stand apart in the source and are kept apart here.

This is an account of results in patent US20200163938A1, “PHARMACEUTICAL COMPOSITION COMPRISING IRON CHELATOR EXHIBITING ANTITUMOR ACTIVITY, ANTIBACTERIAL ACTIVITY AND/OR ANTIVIRUS ACTIVITY, AND HAVING REDUCED SIDE EFFECTS” (priority 2017, published 2020).

Data set [1] is classed as in vivo. The arrangement: NEFA: unit not given here. The following applies: for Body weight: rats. How it is done:
To a negative control group (saline administration; n=6), the same amount of saline was administered. On day 14 after administration, determining life or death, measurement of body weight, physical items (respiration, body temperature, behavior, etc.) were observed. Moreover, blood samples were taken from each group, and the right kidneys and the livers were removed. Results were as depicted in FIG. 5A to 5C and Tables 4 to 9.

Data set [2] has as its system P. gingivalis Pg W83. As to the kind of experiment: Antibacterial activity, turbidity and ATP assay. Format: cell-based, Porphyromonas gingivalis. The following applies: anaerobic culture 37° C., 18 hours, OD595 nm; FIG. 8. How it is done:
A bacterial strain of one of periodontopathic bacteria, gram-negative bacillus, P. gingivalis, used herein was Pg W83. With the use of a liquid medium prepared by adding the chelating agent of each test group to a modified GAM bouillon medium, anaerobic culture (Anaeropack.anaerobic) was performed at 37° C. for 18 hours. Turbidity was found from optical density (OD595 nm). Results were as depicted in FIG. 8.

Where [3] appears, read: rat blood, oral 200 mg/kg, day 14.
Where [4] appears, read: rat blood, oral 1000 mg/kg, day 14, 1000 mg/kg.

As for `Cl.OCC1OC(O)C(NCc2ccc(O)c(O)c2O)C(O)C1O` (stereo not drawn) [Test group 6], in data set [1] (setting [3]), the ALP was found to be 745 IU/L, the ALT is listed as 34 IU/L, the AST was 58 IU/L and the BUN came out at 27.2 mg/dL. In data set [1] (setting [3]), this compound yielded a CRE of 0.37 mg/dL, a Ca of 10.2 mg/dL, a GLU of 212 mg/dL and a K of 3.6 mEQ/L. In data set [1] (setting [3]), this compound yielded an LD of 45 IU/L, an NEFA of 58, a Na of 141 mEQ/L and a T-Bil of 0.03 mg/dL. The TP in data set [1] (setting [3]) was 5.1 g/dL. In data set [1] (setting [4]), the ALP was 437 IU/L and 471 IU/L; the BUN was 22.2 mg/dL and 28.9 mg/dL; the CRE is 0.31 mg/dL and 0.48 mg/dL; the Ca is 10.2 mg/dL and 11.0 mg/dL. In data set [1] (setting [4]), the GLU is 159 mg/dL and 199 mg/dL; the K was 4.5 mEQ/L and 4.1 mEQ/L; the Na is 144 mEQ/L and 143 mEQ/L; the TP is 5.4 g/dL and 5.1 g/dL. Moreover, in data set [1] (oral 200 mg/kg), the Body weight came out at 180.37 g. Further, in data set [1] (oral 1000 mg/kg, 1000 mg/kg), the Body weight was 174.48 g and 178.68 g. Also, in data set [2], the “antimicrobial effects on P. gingivalis (turbidity)” value was “exhibited antimicrobial effects”.
